Laboratory results taken from ChEMBL document CHEMBL1148751, “Optimization of the indenone ring of indenoisoquinoline topoisomerase I inhibitors” (2007).

Legend:
Format in all cases: functional
[1] = tested on: HCT-116; test: Cytotoxicity against human HCT116 cells
[2] = tested on: MDA-MB-435; test: Cytotoxicity against human MDA-MB-435 cells
[3] = tested on: DU-145; test: Cytotoxicity against human DU145 cells
[4] = tested on: OVCAR-3; test: Cytotoxicity against human OVCAR-3 cells
[5] = tested on: SN12C; test: Cytotoxicity against human SN12C cells
[6] = tested on: SF-539; test: Cytotoxicity against human SF539 cells
[7] = tested on: HOP-62; test: Cytotoxicity against human HOP62 cells
[8] = tested on: UACC-62; test: Cytotoxicity against human UACC62 cells

Structure (SMILES): COc1ccc2c(c1)C(=O)c1c-2n(CCCCl)c(=O)c2cc([N+](=O)[O-])ccc12
- GI50 [1]: 0.794 µM
- GI50 [2]: 3.24 µM
- GI50 [3]: 0.036 µM
- GI50 [4]: 3.39 µM
- GI50 [5]: < 0.01 µM
- GI50 [6]: 0.027 µM
- GI50 [7]: 0.295 µM
- GI50 [8]: < 0.01 µM

Structure (SMILES): [N-]=[N+]=NCCCn1c2c(c3ccc([N+](=O)[O-])cc3c1=O)C(=O)c1cc(Br)ccc1-2
- GI50 [1]: 3.02 µM
- GI50 [2]: > 100 µM
- GI50 [3]: 14.8 µM
- GI50 [4]: > 100 µM
- GI50 [5]: > 100 µM
- GI50 [6]: > 100 µM
- GI50 [7]: 56.2 µM
- GI50 [8]: > 100 µM

Structure (SMILES): [N-]=[N+]=NCCCn1c2c(c3ccc([N+](=O)[O-])cc3c1=O)C(=O)c1cc(I)ccc1-2
- GI50 [1]: 2.14 µM
- GI50 [2]: 34.7 µM
- GI50 [3]: 1.78 µM
- GI50 [4]: 18.2 µM
- GI50 [5]: 3.89 µM
- GI50 [6]: 2.24 µM
- GI50 [7]: 1.82 µM
- GI50 [8]: 3.31 µM

Structure (SMILES): N#Cc1ccc2c(c1)C(=O)c1c-2n(CCCN=[N+]=[N-])c(=O)c2cc([N+](=O)[O-])ccc12
- GI50 [1]: 3.89 µM
- GI50 [2]: > 50.1 µM
- GI50 [3]: 7.08 µM
- GI50 [4]: > 50.1 µM
- GI50 [5]: 46.8 µM
- GI50 [6]: > 50.1 µM
- GI50 [7]: 15.1 µM
- GI50 [8]: 3.63 µM

Structure (SMILES): Cc1ccc2c(c1)C(=O)c1c-2n(CCCBr)c(=O)c2cc([N+](=O)[O-])ccc12
- GI50 [1]: 18.6 µM
- GI50 [2]: > 100 µM
- GI50 [3]: 50.1 µM
- GI50 [4]: 70.8 µM
- GI50 [5]: 46.8 µM
- GI50 [6]: > 100 µM
- GI50 [7]: 24.5 µM
- GI50 [8]: 26.3 µM

Structure (SMILES): CCc1ccc2c(c1)C(=O)c1c-2n(CCCN)c(=O)c2cc([N+](=O)[O-])ccc12
- GI50 [1]: 0.575 µM
- GI50 [2]: 1.55 µM
- GI50 [3]: 0.776 µM
- GI50 [4]: 1.58 µM
- GI50 [5]: 1.48 µM
- GI50 [6]: 1.58 µM
- GI50 [7]: 1.38 µM
- GI50 [8]: 1.48 µM

Structure (SMILES): CSc1ccc2c(c1)C(=O)c1c-2n(CCCN)c(=O)c2cc([N+](=O)[O-])ccc12
- GI50 [1]: 0.023 µM
- GI50 [2]: 0.204 µM
- GI50 [3]: < 0.01 µM
- GI50 [4]: 0.17 µM
- GI50 [5]: 0.162 µM
- GI50 [6]: < 0.01 µM
- GI50 [7]: < 0.01 µM
- GI50 [8]: < 0.01 µM

Structure (SMILES): N#Cc1ccc2c(c1)C(=O)c1c-2n(CCCCl)c(=O)c2cc([N+](=O)[O-])ccc12
- GI50 [1]: 1.82 µM
- GI50 [2]: > 100 µM
- GI50 [3]: 2.75 µM
- GI50 [4]: 8.71 µM
- GI50 [5]: 5.89 µM
- GI50 [6]: 2.63 µM
- GI50 [7]: 2.57 µM
- GI50 [8]: 1.12 µM

Structure (SMILES): Cc1ccc(S(=O)(=O)Oc2ccc3c(c2)C(=O)c2c-3n(CCCBr)c(=O)c3cc([N+](=O)[O-])ccc23)cc1
- GI50 [1]: > 100 µM
- GI50 [2]: > 100 µM
- GI50 [3]: 58.9 µM
- GI50 [4]: 81.3 µM
- GI50 [5]: > 100 µM
- GI50 [6]: 50.1 µM
- GI50 [7]: 7.59 µM
- GI50 [8]: 23.4 µM

Structure (SMILES): CS(=O)(=O)c1ccc2c(c1)C(=O)c1c-2n(CCCBr)c(=O)c2cc([N+](=O)[O-])ccc12
- GI50 [1]: 7.41 µM
- GI50 [2]: 83.2 µM
- GI50 [3]: 6.31 µM
- GI50 [4]: 28.8 µM
- GI50 [5]: 6.92 µM
- GI50 [6]: 24 µM
- GI50 [7]: 8.13 µM
- GI50 [8]: 4.27 µM

Structure (SMILES): CCOc1ccc2c(c1)C(=O)c1c-2n(CCCN=[N+]=[N-])c(=O)c2cc([N+](=O)[O-])ccc12
- GI50 [1]: 1.82 µM
- GI50 [2]: 39.8 µM
- GI50 [3]: 3.89 µM
- GI50 [4]: 20 µM
- GI50 [5]: 5.25 µM
- GI50 [6]: 3.89 µM
- GI50 [7]: 3.02 µM
- GI50 [8]: 2.88 µM

Structure (SMILES): Cc1ccc2c(c1)C(=O)c1c-2n(CCCN=[N+]=[N-])c(=O)c2cc([N+](=O)[O-])ccc12
- GI50 [1]: 20.4 µM
- GI50 [2]: > 100 µM
- GI50 [3]: > 100 µM
- GI50 [4]: > 100 µM
- GI50 [5]: 58.9 µM
- GI50 [6]: > 100 µM
- GI50 [7]: 72.4 µM
- GI50 [8]: 30.2 µM

Structure (SMILES): CSc1ccc2c(c1)C(=O)c1c-2n(CCCN=[N+]=[N-])c(=O)c2cc([N+](=O)[O-])ccc12
- GI50 [1]: 0.776 µM
- GI50 [2]: 6.03 µM
- GI50 [3]: 1.15 µM
- GI50 [4]: 3.89 µM
- GI50 [5]: 1.05 µM
- GI50 [6]: 0.891 µM
- GI50 [7]: 0.603 µM
- GI50 [8]: 0.708 µM

Structure (SMILES): [N-]=[N+]=NCCCn1c2c(c3ccc([N+](=O)[O-])cc3c1=O)C(=O)c1cc(-c3ccccc3)ccc1-2
- GI50 [1]: > 100 µM
- GI50 [2]: > 100 µM
- GI50 [3]: > 100 µM
- GI50 [4]: > 100 µM
- GI50 [5]: > 100 µM
- GI50 [6]: > 100 µM
- GI50 [7]: > 100 µM
- GI50 [8]: > 100 µM

Structure (SMILES): COC(=O)c1ccc2c(c1)C(=O)c1c-2n(CCCCl)c(=O)c2cc([N+](=O)[O-])ccc12
- GI50 [1]: 41.7 µM
- GI50 [2]: > 100 µM
- GI50 [3]: 37.2 µM
- GI50 [4]: 95.5 µM
- GI50 [5]: > 100 µM
- GI50 [6]: 83.2 µM
- GI50 [7]: 43.7 µM
- GI50 [8]: 27.5 µM

Structure (SMILES): CCOc1ccc2c(c1)C(=O)c1c-2n(CCCBr)c(=O)c2cc([N+](=O)[O-])ccc12
- GI50 [1]: 6.03 µM
- GI50 [2]: 30.9 µM
- GI50 [3]: 4.27 µM
- GI50 [4]: 23.4 µM
- GI50 [5]: 11.7 µM
- GI50 [6]: 5.62 µM
- GI50 [7]: 5.75 µM
- GI50 [8]: 5.75 µM

Structure (SMILES): CCc1ccc2c(c1)C(=O)c1c-2n(CCCBr)c(=O)c2cc([N+](=O)[O-])ccc12
- GI50 [1]: > 50.1 µM
- GI50 [2]: > 50.1 µM
- GI50 [3]: > 50.1 µM
- GI50 [4]: > 50.1 µM
- GI50 [5]: > 50.1 µM
- GI50 [6]: 28.2 µM
- GI50 [7]: 21.4 µM
- GI50 [8]: 32.4 µM

Structure (SMILES): [N-]=[N+]=NCCCn1c2c(c3ccc([N+](=O)[O-])cc3c1=O)C(=O)c1cc(F)ccc1-2
- GI50 [1]: 0.309 µM
- GI50 [2]: 2.88 µM
- GI50 [3]: 0.437 µM
- GI50 [4]: 3.47 µM
- GI50 [5]: 0.302 µM
- GI50 [6]: 0.457 µM
- GI50 [7]: 0.251 µM
- GI50 [8]: 0.38 µM

Structure (SMILES): CCOc1ccc2c(c1)C(=O)c1c-2n(CCCN)c(=O)c2cc([N+](=O)[O-])ccc12
- GI50 [1]: 0.174 µM
- GI50 [2]: 0.2 µM
- GI50 [3]: 0.011 µM
- GI50 [4]: 0.457 µM
- GI50 [5]: 0.055 µM
- GI50 [6]: 0.035 µM
- GI50 [7]: 0.012 µM
- GI50 [8]: 0.055 µM

Structure (SMILES): COC(=O)OCc1ccc2c(c1)C(=O)c1c-2n(CCCBr)c(=O)c2cc([N+](=O)[O-])ccc12
- GI50 [1]: 81.3 µM
- GI50 [2]: > 100 µM
- GI50 [3]: > 100 µM
- GI50 [4]: > 100 µM
- GI50 [5]: > 100 µM
- GI50 [6]: 56.2 µM
- GI50 [7]: 27.5 µM
- GI50 [8]: 33.9 µM

Structure (SMILES): O=C1c2cc(-c3ccccc3)ccc2-c2c1c1ccc([N+](=O)[O-])cc1c(=O)n2CCCBr
- GI50 [1]: > 50.1 µM
- GI50 [2]: > 50.1 µM
- GI50 [3]: > 50.1 µM
- GI50 [4]: > 50.1 µM
- GI50 [5]: > 50.1 µM
- GI50 [6]: 16.6 µM
- GI50 [7]: 18.2 µM
- GI50 [8]: 49 µM

Structure (SMILES): CCc1ccc2c(c1)C(=O)c1c-2n(CCCN=[N+]=[N-])c(=O)c2cc([N+](=O)[O-])ccc12
- GI50 [1]: > 50.1 µM
- GI50 [2]: > 50.1 µM
- GI50 [3]: > 50.1 µM
- GI50 [4]: > 50.1 µM
- GI50 [5]: > 50.1 µM
- GI50 [6]: > 50.1 µM
- GI50 [7]: > 50.1 µM
- GI50 [8]: > 50.1 µM

Structure (SMILES): COC(=O)c1ccc2c(c1)C(=O)c1c-2n(CCCN=[N+]=[N-])c(=O)c2cc([N+](=O)[O-])ccc12
- GI50 [1]: 47.9 µM
- GI50 [2]: > 100 µM
- GI50 [3]: 70.8 µM
- GI50 [4]: > 100 µM
- GI50 [5]: > 100 µM
- GI50 [6]: 53.7 µM
- GI50 [7]: 25.7 µM
- GI50 [8]: 37.1 µM

Structure (SMILES): O=C1c2cc(Cl)ccc2-c2c1c1ccc([N+](=O)[O-])cc1c(=O)n2CCCBr
- GI50 [1]: 3.47 µM
- GI50 [2]: 14.8 µM
- GI50 [3]: 3.98 µM
- GI50 [4]: 36.3 µM
- GI50 [5]: 2.51 µM
- GI50 [6]: 3.72 µM
- GI50 [7]: 2.45 µM
- GI50 [8]: 3.47 µM

Structure (SMILES): CSc1ccc2c(c1)C(=O)c1c-2n(CCCBr)c(=O)c2cc([N+](=O)[O-])ccc12
- GI50 [1]: 2.24 µM
- GI50 [2]: 30.9 µM
- GI50 [3]: 3.89 µM
- GI50 [4]: > 100 µM
- GI50 [5]: 0.891 µM
- GI50 [6]: 4.57 µM
- GI50 [7]: 1.05 µM
- GI50 [8]: 3.09 µM
